# pIC50: −log10 of the molar value.
# How the values were obtained:
# Type in all cases: biochemical
# [1] = target: Abl (Homo sapiens, UniProt P00519); experiment: Z′-LYTE kinase inhibition assay, Abl; settings: for % inhibition: average of 2 runs
# Text: (§1) All samples were sent out to Life Technologies to obtain kinase inhibition data. A brief description of the assays and analyses are included below.
# (§2) Assay Theory (SelectScreen® Kinase Profiling Services (Life Technologies, Madison, Wis. USA). The Z′-LYTE® biochemical assay employs a fluorescence-based, coupled-enzyme format and is based on the differential sensitivity of phosphorylated and non-phosphorylated peptides to proteolytic cleavage. The peptide substrate is labeled with two fluorophores one at each end—that make up a FRET pair.
# (§3) In the primary reaction, the kinase transfers the gamma-phosphate of ATP to a single tyrosine, serine or threonine residue in a synthetic FRET-peptide. In the secondary reaction, a site-specific protease recognizes and cleaves non-phosphorylated FRET-peptides.
# (§4) Phosphorylation of FRET-peptides suppresses cleavage by the Development Reagent. Cleavage disrupts FRET between the donor (i.e., coumarin) and acceptor (i.e., fluorescein) fluorophores on the FRET-peptide, whereas uncleaved, phosphorylated FRET-peptides maintain FRET. A ratiometric method, which calculates the ratio (the Emission Ratio) of donor emission to acceptor emission after excitation of the donor fluorophore at 400 nm, is used to quantitate reaction progress, as shown in the equation below: […]
# (§5) A significant benefit of this ratiometric method for quantitating reaction progress is the elimination of well-to-well variations in FRET-peptide concentration and signal intensities. As a result, the assay yields very high Z′-factor values (>0.7) at a low percent phosphorylation. Both cleaved and uncleaved FRET-peptides contribute to the fluorescence signals and therefore to the Emission Ratio. The extent of phosphorylation of the FRET-peptide can be calculated from the Emission Ratio. The Emission Ratio will remain low if the FRET-peptide is phosphorylated (i.e., no kinase inhibition) and will he high if the FRET-peptide is non-phosphorylated (i.e., kinase inhibition).
# [2] = target: Alk (Homo sapiens, UniProt Q9UM73); experiment: Z′-LYTE kinase inhibition assay, Alk; settings: for % inhibition: average of 2 runs
# Alk, sequence (Q9UM73 19-1620): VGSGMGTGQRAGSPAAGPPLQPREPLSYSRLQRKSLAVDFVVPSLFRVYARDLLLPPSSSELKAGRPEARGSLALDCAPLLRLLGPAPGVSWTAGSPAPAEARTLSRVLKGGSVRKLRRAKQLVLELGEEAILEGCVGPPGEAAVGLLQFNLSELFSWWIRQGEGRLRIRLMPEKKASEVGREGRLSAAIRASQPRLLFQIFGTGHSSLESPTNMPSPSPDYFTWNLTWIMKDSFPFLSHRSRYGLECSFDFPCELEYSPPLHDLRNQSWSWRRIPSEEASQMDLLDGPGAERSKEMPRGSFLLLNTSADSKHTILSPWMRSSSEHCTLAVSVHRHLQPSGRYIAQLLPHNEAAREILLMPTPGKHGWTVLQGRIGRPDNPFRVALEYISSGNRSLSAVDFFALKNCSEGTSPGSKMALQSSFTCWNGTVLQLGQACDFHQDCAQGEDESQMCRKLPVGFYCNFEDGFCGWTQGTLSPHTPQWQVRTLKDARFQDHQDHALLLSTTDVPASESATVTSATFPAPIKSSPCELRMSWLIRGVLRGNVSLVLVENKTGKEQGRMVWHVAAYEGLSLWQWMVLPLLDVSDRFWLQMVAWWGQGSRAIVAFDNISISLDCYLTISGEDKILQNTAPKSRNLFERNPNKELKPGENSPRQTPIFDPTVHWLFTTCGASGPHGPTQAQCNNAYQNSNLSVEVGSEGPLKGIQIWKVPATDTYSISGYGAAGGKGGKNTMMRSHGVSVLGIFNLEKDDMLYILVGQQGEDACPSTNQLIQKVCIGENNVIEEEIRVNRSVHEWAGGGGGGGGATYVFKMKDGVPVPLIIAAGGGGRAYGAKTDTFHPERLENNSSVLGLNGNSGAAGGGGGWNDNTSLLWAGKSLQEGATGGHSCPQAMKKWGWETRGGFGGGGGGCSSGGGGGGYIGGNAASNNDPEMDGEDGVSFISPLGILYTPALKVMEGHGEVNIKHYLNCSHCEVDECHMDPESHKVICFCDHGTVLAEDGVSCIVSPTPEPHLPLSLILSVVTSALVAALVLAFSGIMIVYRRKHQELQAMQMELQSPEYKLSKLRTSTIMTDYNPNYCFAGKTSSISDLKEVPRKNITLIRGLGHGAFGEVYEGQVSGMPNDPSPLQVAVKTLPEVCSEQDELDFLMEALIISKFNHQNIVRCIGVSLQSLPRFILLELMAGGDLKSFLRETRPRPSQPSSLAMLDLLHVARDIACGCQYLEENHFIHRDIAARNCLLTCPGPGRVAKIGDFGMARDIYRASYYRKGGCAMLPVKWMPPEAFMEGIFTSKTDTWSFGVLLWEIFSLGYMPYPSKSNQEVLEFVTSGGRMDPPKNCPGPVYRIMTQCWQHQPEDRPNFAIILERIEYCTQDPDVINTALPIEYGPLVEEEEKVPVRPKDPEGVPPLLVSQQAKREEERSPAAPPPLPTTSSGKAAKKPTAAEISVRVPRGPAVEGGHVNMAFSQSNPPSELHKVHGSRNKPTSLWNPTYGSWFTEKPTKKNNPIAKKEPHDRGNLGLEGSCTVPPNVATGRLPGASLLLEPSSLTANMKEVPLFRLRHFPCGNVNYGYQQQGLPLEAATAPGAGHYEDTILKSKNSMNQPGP
# Text: as §1, §2, §3, §4, §5
# [3] = target: Blk (Homo sapiens, UniProt P51451); experiment: Z′-LYTE kinase inhibition assay, Blk; settings: for % inhibition: average of 2 runs
# Text: as §1, §2, §3, §4, §5
# [4] = target: BTK (Homo sapiens, UniProt Q06187); experiment: Z′-LYTE kinase inhibition assay, BTK; settings: for % inhibition: average of 2 runs
# Text: as §1, §2, §3, §4, §5
# [5] = target: CSK (Homo sapiens, UniProt P41240); experiment: Z′-LYTE kinase inhibition assay, CSK; settings: for % inhibition: average of 2 runs
# CSK, sequence (P41240 whole entry): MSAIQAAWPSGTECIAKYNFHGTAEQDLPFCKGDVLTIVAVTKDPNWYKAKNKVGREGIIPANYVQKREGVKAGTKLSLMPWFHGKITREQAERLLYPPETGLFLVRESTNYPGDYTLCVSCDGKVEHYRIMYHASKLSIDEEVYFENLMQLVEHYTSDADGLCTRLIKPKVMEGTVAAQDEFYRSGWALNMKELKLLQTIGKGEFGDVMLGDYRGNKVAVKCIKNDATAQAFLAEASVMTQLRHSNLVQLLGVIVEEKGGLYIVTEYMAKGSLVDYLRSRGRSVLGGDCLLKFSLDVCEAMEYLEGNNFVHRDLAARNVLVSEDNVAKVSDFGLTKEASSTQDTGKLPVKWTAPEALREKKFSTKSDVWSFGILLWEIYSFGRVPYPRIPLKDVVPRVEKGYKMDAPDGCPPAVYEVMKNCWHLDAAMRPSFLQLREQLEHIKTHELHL
# Text: as §1, §2, §3, §4, §5
# [6] = target: EGFR (Homo sapiens, UniProt P00533); experiment: Z′-LYTE kinase inhibition assay, EGFR; settings: for % inhibition: average of 2 runs
# Text: as §1, §2, §3, §4, §5
# [7] = target: Her-2 (Homo sapiens, UniProt P04626); experiment: Z′-LYTE kinase inhibition assay, Her-2; settings: average of 2 runs
# Text: as §1, §2, §3, §4, §5
# [8] = target: Fgr (Homo sapiens, UniProt P09769); experiment: Z′-LYTE kinase inhibition assay, Fgr; settings: for % inhibition: average of 2 runs
# Text: as §1, §2, §3, §4, §5
# [9] = target: Fyn (Homo sapiens, UniProt P06241); experiment: Z′-LYTE kinase inhibition assay, Fyn; settings: for % inhibition: average of 2 runs
# Text: as §1, §2, §3, §4, §5
# [10] = target: Hck (Homo sapiens, UniProt P08631); experiment: Z′-LYTE kinase inhibition assay, Hck; settings: for % inhibition: average of 2 runs
# Hck, sequence (P08631 whole entry): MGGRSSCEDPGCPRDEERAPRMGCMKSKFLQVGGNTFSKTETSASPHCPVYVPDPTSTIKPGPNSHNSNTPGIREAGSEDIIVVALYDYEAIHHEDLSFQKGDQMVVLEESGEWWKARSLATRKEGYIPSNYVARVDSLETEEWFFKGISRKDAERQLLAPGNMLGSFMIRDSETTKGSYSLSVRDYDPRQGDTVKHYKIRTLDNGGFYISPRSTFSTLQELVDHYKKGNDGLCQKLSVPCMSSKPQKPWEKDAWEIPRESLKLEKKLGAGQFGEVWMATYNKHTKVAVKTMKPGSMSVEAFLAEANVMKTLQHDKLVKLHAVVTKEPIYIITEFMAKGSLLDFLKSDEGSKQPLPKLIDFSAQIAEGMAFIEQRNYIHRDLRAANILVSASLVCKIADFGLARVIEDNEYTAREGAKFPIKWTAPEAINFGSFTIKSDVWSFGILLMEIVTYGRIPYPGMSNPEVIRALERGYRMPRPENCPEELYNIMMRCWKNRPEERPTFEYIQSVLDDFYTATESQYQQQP
# Text: as §1, §2, §3, §4, §5
# [11] = target: Kit (Homo sapiens, UniProt P10721); experiment: Z′-LYTE kinase inhibition assay, Kit; settings: for % inhibition: average of 2 runs
# Kit, sequence (P10721 26-976): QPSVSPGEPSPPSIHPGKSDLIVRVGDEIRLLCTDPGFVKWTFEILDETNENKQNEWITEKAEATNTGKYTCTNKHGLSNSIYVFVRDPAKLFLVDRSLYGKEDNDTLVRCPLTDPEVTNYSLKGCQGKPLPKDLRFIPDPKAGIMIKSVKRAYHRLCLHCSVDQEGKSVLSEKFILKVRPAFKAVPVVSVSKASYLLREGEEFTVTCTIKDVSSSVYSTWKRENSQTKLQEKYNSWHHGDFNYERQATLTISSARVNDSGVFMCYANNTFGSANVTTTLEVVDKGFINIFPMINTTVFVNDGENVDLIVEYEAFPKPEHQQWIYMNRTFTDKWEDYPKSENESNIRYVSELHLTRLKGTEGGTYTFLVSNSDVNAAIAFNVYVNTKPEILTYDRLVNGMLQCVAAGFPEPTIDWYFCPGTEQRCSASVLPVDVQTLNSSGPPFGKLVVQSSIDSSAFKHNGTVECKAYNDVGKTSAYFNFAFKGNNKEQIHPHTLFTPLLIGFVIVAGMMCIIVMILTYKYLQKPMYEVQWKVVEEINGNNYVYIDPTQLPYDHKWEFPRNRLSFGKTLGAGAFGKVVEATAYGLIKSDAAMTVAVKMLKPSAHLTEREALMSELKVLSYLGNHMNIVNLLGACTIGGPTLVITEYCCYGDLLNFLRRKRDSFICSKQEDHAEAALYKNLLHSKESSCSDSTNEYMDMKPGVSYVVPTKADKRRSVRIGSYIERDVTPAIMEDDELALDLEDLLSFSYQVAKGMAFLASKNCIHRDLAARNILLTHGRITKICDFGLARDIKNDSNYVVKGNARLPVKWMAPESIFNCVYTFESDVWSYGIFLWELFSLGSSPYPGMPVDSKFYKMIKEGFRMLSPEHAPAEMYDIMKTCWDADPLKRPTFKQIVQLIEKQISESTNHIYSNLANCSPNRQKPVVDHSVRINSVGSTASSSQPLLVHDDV
# Text: as §1, §2, §3, §4, §5
# [12] = target: Lck (Homo sapiens, UniProt P06239); experiment: Z′-LYTE kinase inhibition assay, Lck; settings: for % inhibition: average of 2 runs
# Text: as §1, §2, §3, §4, §5
# [13] = target: Lyn (Homo sapiens, UniProt P07948); experiment: Z′-LYTE kinase inhibition assay, Lyn; settings: for % inhibition: average of 2 runs
# Lyn, sequence (P07948 whole entry): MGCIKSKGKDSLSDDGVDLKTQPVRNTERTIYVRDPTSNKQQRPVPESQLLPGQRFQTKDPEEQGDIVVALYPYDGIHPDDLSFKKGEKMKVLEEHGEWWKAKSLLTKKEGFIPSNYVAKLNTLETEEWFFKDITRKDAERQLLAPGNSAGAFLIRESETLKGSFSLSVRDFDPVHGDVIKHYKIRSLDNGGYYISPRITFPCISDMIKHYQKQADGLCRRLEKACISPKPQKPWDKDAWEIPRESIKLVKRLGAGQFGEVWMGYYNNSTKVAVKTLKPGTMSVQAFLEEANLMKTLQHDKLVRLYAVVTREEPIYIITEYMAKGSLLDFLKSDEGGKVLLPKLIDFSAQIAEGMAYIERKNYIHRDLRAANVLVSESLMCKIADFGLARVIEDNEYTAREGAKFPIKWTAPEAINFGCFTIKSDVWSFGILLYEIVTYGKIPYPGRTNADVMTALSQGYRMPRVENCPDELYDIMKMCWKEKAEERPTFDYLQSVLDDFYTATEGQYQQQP
# Text: as §1, §2, §3, §4, §5
# [14] = target: pdgfr-a (Homo sapiens, UniProt P16234); experiment: Z′-LYTE kinase inhibition assay, pdgfr-a; settings: for % inhibition: average of 2 runs
# Text: as §1, §2, §3, §4, §5
# [15] = target: pdgfr-b (Homo sapiens, UniProt P09619); experiment: Z′-LYTE kinase inhibition assay, pdgfr-b; settings: for % inhibition: average of 2 runs
# Text: as §1, §2, §3, §4, §5
# [16] = target: Ret (Homo sapiens, UniProt P07949); experiment: Z′-LYTE kinase inhibition assay, Ret; settings: for % inhibition: average of 2 runs
# Text: as §1, §2, §3, §4, §5
# [17] = target: Yes (Homo sapiens, UniProt P07947); experiment: Z′-LYTE kinase inhibition assay, Yes; settings: for % inhibition: average of 2 runs
# Yes, sequence (P07947 whole entry): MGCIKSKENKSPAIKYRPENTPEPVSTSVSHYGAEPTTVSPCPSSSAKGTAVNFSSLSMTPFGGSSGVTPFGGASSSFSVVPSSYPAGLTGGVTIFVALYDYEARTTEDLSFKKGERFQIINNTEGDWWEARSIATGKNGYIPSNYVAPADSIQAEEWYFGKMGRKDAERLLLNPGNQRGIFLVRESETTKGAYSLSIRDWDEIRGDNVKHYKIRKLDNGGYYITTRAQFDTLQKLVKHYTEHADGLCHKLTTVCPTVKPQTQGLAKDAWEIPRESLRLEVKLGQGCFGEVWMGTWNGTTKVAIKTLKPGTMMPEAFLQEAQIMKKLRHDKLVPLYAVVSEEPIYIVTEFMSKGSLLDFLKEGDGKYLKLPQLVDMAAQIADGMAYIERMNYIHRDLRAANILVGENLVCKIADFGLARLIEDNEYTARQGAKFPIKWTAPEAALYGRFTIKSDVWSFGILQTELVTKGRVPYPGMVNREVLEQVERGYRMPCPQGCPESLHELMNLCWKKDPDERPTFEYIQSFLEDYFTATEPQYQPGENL
# Text: as §1, §2, §3, §4, §5
# [18] = target: Src kinase (Homo sapiens, UniProt P12931); experiment: Z′-LYTE kinase inhibition assay, Src
# Text: Based on the observed stereochemical stabilities, we chose 1f, 2e, and 2f for further study and obtained inhibition data against Src kinase from Life Technologies' Z′-LYTE™ kinase assay (Scheme 3).
# as §1, §2, §3, §4, §5
# [19] = system: panel of 18 tyrosine kinases; experiment: Kinase inhibitor profiling across a panel of tyrosine kinases (selectivity); settings: for S(40%): number of kinases inhibited greater than 40% divided by number of kinases tested (including Src)
# Description: In order to probe the effect of atropisomeric conformation on kinase selectivity we subjected 1f, 2e, and 2f to kinase inhibitor profiling across a panel of tyrosine kinases at 1000 nM and 5000 nM (data for 2e shown in Scheme 4 below).
# To analyze each analog's selectivity across the panel we turned to selectivity scores (Davis et al., Nat. Biotechnol. 2011, 29, 1046-51), simply the number of kinases inhibited above a certain threshold divided by the number of kinases evaluated. […] For example at 1000 nM 2e-(R) yielded an S(40%) of 0.11 while 2e-(S) gave an S(40%) of 0.16. […] Differences in selectivity between 2e-(R) and 2e-(S) at 5000 nM (4.5 times the IC50 of 2e-(S) toward Src) and for 5 at 1000 nM (6.25 times the IC50 of 5 toward Src) can be viewed graphically across tyrosine kinases (FIG. 3). Importantly, similar trends were also observed across each of the atropisomeric series tested.
# as §1, §2, §3, §4, §5
# [20] = % inhibition 2e-(S)/% inhibition 2e-(R) at 5000 nM
smiles,measurement,setting,value
"COc1ccc(Cl)c(-c2c(Cl)n(C(C)(C)C)c3ncnc(N)c23)c1 (single isomer, unassigned) [2e-(S), 7-(tert-butyl)-6-chloro-5-(2-chloro-5-methoxyphenyl)-7H-pyrrolo[2,3d]pyrimidin-4-amine]",IC50 of Kinase/IC50 of Yes,[1]; Abl relative to Yes,1.96
same,% inhibition,"[1]; Abl, 1000 nM, 1 µM",36%
same,% inhibition,"[1]; Abl, 5000 nM",67%
same,% inhibition,"[1]; Abl, 5000 nM, 5 µM",67%
same,SIR (5000 nM),"[1]; Abl, % inhibition 2e-(S)/% inhibition 2e-(R) at 5000 nM",2.57
same,pIC50,"[1]; Abl, error is standard deviation",5.84
same,% inhibition,"[2]; 1000 nM, 1 µM",5%
same,% inhibition,"[2]; 5000 nM, 5 µM",7%
same,SIR (5000 nM),[2]; [20],0.38
same,% inhibition,"[3]; 1000 nM, 1 µM",21%
same,% inhibition,"[3]; 5000 nM, 5 µM",47%
same,SIR (5000 nM),[3]; [20],1.46
same,% inhibition,"[4]; 1000 nM, 1 µM",18%
same,% inhibition,"[4]; 5000 nM, 5 µM",54%
same,SIR (5000 nM),[4]; [20],1.86
same,% inhibition,"[5]; 1000 nM, 1 µM",19%
same,% inhibition,"[5]; 5000 nM, 5 µM",45%
same,SIR (5000 nM),[5]; [20],1.28
same,IC50 of Kinase/IC50 of Yes,[6]; EGFR relative to Yes,>10.0
same,% inhibition,"[6]; EGFR, 1000 nM, 1 µM",10%
same,% inhibition,"[6]; EGFR, 5000 nM, 5 µM",21%
same,pIC50,"[6]; EGFR, error is standard deviation",< 5.00
same,% inhibition,"[7]; 1000 nM, 1 µM",−7%
same,% inhibition,[7]; 5000 nM,0%
same,% inhibition,"[8]; 1000 nM, 1 µM",58%
same,% inhibition,"[8]; 5000 nM, 5 µM",81%
same,SIR (5000 nM),[8]; [20],1.05
same,% inhibition,"[9]; 1000 nM, 1 µM",26%
same,% inhibition,"[9]; 5000 nM, 5 µM",56%
same,SIR (5000 nM),[9]; [20],1.27
same,% inhibition,"[10]; 1000 nM, 1 µM",32%
same,% inhibition,"[10]; 5000 nM, 5 µM",50%
same,SIR (5000 nM),[10]; [20],1.25
same,% inhibition,"[11]; 1000 nM, 1 µM",18%
same,% inhibition,"[11]; 5000 nM, 5 µM",36%
same,SIR (5000 nM),[11]; [20],1.38
same,% inhibition,"[12]; 1000 nM, 1 µM",26%
same,% inhibition,"[12]; 5000 nM, 5 µM",54%
same,SIR (5000 nM),[12]; [20],1.05
same,% inhibition,"[13]; 1000 nM, 1 µM",36%
same,% inhibition,"[13]; 5000 nM, 5 µM",75%
same,SIR (5000 nM),[13]; [20],1.31
same,% inhibition,[14]; 1000 nM,3%
same,% inhibition,"[14]; 5000 nM, 5 µM",13%
same,SIR (5000 nM),[14]; [20],1.63
same,% inhibition,"[15]; 1000 nM, 1 µM",13%
same,% inhibition,"[15]; 5000 nM, 5 µM",16%
same,SIR (5000 nM),[15]; [20],1.23
same,IC50 of Kinase/IC50 of Yes,[16]; Ret relative to Yes,10.53
same,% inhibition,"[16]; Ret, 1000 nM, 1 µM",14%
same,% inhibition,"[16]; Ret, 5000 nM",32%
same,% inhibition,"[16]; Ret, 5000 nM, 5 µM",32%
same,SIR (5000 nM),"[16]; Ret, % inhibition 2e-(S)/% inhibition 2e-(R) at 5000 nM",0.44
same,pIC50,"[16]; Ret, error is standard deviation",5.12
same,IC50 of Kinase/IC50 of Yes,[17]; Yes relative to Yes,1
same,% inhibition,"[17]; Yes, 1000 nM",53%
same,% inhibition,"[17]; Yes, 5000 nM, 5 µM",77%
same,SIR (5000 nM),"[17]; Yes, % inhibition 2e-(S)/% inhibition 2e-(R) at 5000 nM",0.97
same,pIC50,"[17]; Yes, error is standard deviation",6.14
same,IC50 of Kinase/IC50 of Yes,[18]; Src relative to Yes,1.64
same,pIC50,"[18]; Src, error is standard deviation",5.92
same,S(40%),[19]; 1000 nM,0.16
same,S(40%),[19]; 5000 nM,0.61
same,increase of 5's inherent selectivity,[19]; less potent towards Ret,~8 fold
